Assay results as given in US9156877B2, “17-hydroxy-17-pentafluorethyl-estra-4,9(10)-dien-11-benzylidene derivatives, methods for the production thereof and use thereof for treating diseases” (Bayer Intellectual Property GmbH, priority 2009, dated 2015).
≈ marks a conversion by molar mass, not a printed value.

Tests used:
[1] = molecular target: T1, human progesterone receptor A (Homo sapiens, UniProt P06401); experiment: Progesterone receptor-antagonistic action in stably transfected SK-N-MC cells with MMTV-LUC reporter (PR-A); type: cell-based; settings: antagonistic potency against 0.1 nmol/l promegestone, 24 hours, luciferase
T1 construct: expressed in transfected cells; host or cells: SK-N-MC human neuroblastoma cells, stably transfected with pRChPR-A-neo and pMMTV-LUC
T1 sequence (P06401 1-769 isoform P06401-2): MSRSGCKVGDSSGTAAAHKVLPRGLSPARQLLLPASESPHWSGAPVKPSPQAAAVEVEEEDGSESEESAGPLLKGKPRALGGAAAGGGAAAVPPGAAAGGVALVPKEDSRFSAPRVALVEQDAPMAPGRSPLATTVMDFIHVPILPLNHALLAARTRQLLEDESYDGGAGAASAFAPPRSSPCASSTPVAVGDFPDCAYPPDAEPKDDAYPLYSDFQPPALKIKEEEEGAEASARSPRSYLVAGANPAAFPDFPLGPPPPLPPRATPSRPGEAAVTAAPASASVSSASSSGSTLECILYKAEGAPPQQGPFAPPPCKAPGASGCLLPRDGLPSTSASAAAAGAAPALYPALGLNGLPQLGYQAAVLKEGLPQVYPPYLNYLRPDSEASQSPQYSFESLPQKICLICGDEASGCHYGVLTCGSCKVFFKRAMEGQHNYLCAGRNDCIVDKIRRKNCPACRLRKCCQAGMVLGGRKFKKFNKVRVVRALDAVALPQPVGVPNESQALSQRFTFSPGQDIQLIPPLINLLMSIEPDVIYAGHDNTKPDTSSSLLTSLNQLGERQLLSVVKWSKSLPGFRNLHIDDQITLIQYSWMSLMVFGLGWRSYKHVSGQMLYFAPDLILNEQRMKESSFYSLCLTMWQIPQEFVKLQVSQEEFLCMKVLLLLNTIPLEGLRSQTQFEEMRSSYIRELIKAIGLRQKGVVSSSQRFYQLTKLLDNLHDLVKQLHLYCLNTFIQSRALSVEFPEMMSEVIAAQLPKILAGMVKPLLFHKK
Method in brief: (§1)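 SK-N-MC neuroblastoma cells stably expressing human PR-A or PR-B plus MMTV-LUC reporter, treated 24 h with test compound (0.01 nmol/l–[…]). Antagonist mode used co-treatment with 0.1 nmol/l promegestone; luciferase in lysates read as RLU, expressed as % efficacy and IC50/EC50.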

[2] = Metabolic stability in human liver microsomes; type: in vitro ADME; settings: for Predicted clearance [l/h/kg] Human: 1 μM, well-stirred model
Experimental: (§2) Determination of Metabolic Stability in Human and Rat Liver Microsomes
Isolated human liver microsomes (HLM) were used to assess the metabolic stability of compounds of general formula I.
(§3) The incubations were conducted with 2.4 ml of HLM solution (protein content 0.5 mg/ml), 30 μl of the test compound (final concentration 1 μM) and 0.6 ml of the cofactor mixture (═NADPH-generating system composed of 3 IU glucose-6-phosphate dehydrogenase, 14.6 mg glucose-6-phosphate, 1.2 mg NADP) at 37° C. in 100 mM phosphate buffer at pH 7.4. Samples were taken at 6 time points (2-60 min) and precipitated with an equal volume of methanol, and the recovery of the test substances used in the supernatant was determined by LC-MS/MS analysis. The half-life of substance degradation determined therefrom was used to calculate what is called the intrinsic clearance of the substance in the liver microsome preparation. […] In addition, under the assumptions that (i) absorption of the test substance is 100%, and (ii) the first pass is completely reflected by liver microsome metabolism, a maximum oral bioavailability (Fmax) was calculated.

[3] = Solubility in aqueous medium at pH 7.4; type: physicochemical; settings: for solubility: aqueous medium, pH 7.4, aqueous buffer; for solubility (in words): aqueous medium under physiological conditions
From the text: In addition, some compounds have an unusually good solubility, for this active ingredient class, in aqueous medium under physiological conditions (Table 2).

[4] = molecular target: T2, human progesterone receptor B (Homo sapiens, UniProt P06401); experiment: Progesterone receptor-antagonistic action in stably transfected SK-N-MC cells with MMTV-LUC reporter (PR-B); type: cell-based; settings: antagonistic potency against 0.1 nmol/l promegestone, 24 hours, luciferase
T2 construct: expressed in transfected cells; host or cells: SK-N-MC human neuroblastoma cells, stably transfected with pRChPR-B-neo and pMMTV-LUC
T2 sequence (P06401 1-933): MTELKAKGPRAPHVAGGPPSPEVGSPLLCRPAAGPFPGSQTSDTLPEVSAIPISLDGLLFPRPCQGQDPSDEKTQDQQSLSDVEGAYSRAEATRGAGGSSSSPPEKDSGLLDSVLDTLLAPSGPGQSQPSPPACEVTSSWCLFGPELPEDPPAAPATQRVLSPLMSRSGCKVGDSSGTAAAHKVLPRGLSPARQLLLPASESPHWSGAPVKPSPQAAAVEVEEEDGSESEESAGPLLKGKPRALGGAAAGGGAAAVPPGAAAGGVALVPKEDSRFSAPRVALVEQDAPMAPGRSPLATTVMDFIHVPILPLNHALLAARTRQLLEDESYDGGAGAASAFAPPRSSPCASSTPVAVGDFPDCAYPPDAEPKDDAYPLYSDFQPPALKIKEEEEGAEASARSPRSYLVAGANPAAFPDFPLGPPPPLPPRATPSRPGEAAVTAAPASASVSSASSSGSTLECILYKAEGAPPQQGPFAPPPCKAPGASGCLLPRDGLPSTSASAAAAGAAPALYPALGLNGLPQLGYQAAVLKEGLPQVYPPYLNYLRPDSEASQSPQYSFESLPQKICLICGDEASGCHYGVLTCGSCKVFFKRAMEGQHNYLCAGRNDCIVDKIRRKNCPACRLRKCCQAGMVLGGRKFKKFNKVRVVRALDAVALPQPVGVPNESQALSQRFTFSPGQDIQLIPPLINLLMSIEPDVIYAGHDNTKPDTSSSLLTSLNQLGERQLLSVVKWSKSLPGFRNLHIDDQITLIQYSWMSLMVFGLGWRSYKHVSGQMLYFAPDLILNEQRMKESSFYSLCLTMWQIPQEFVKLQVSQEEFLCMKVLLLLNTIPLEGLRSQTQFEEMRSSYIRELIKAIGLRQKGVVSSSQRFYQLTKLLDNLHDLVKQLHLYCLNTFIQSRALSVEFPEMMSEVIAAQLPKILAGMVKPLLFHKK
Method in brief: as §1

[5] = Metabolic stability in rat liver microsomes; type: in vitro ADME; settings: for Predicted clearance [l/h/kg] Rat: well-stirred model
Experimental: as §2, §3

SMILES	IC50 [1] [nM]	Predicted Fmax [%] (maximum oral bioavailability) Human [2]	Predicted clearance [l/h/kg] Human [2] [L/h/kg]	solubility [3] [µg/mL]	IC50 [4] [nM]	Predicted Fmax [%] (maximum oral bioavailability) Rat [5]	Predicted clearance [l/h/kg] Rat [5] [L/h/kg]	solubility (in words) [3]
C=CC=Cc1ccc([C@H]2C[C@@]3(C)C(CC[C@@]3(O)C(F)(F)C(F)(F)F)C3CCC4=CC(=O)CCC4=C32)cc1 (mixture of isomers) [Example 18, (8S,11R,13S,14S,17S)-11-[((E/Z)-4-buta-1,3-dienyl)phenyl]-17-hydroxy-13-methyl-17-pentafluoroethyl-1,2,6,7,8,11,12,13,14,15,16,17-dodecahydrocyclopenta[a]phenanthren-3-one]	0.01	36	0.84	6	0.02	57	1.8	–
C[C@]12C[C@H](c3ccc(/C=C/CO)cc3)C3=C4CCC(=O)C=C4CC[C@H]3[C@@H]1CC[C@@]2(O)C(F)(F)C(F)(F)F [Example 2, (8S,11R,13S,14S,17S)-17-hydroxy-11-[4-((E)-3-hydroxypropenyl)phenyl]-13-methyl-17-pentafluoroethyl-1,2,6,7,8,11,12,13,14,15,16,17-dodecahydrocyclopenta[a]phenanthren-3-one]	0.14	69	0.41	11 (≈ 21.1 µM)	0.25	69	1.3	–
C[C@]12C[C@H](c3ccc(/C=C/CC(C(=O)O)C(=O)O)cc3)C3=C4CCC(=O)C=C4CC[C@H]3[C@@H]1CC[C@@]2(O)C(F)(F)C(F)(F)F [Example 5, 2-{(E)-3-[4-((8S,11R,13S,14S,17S)-17-hydroxy-13-methyl-3-oxo-17-pentafluoroethyl-2,3,6,7,8,11,12,13,14,15,16,17-dodecahydro-1H-cyclopenta[a]phenanthren-11-yl)phenyl]allyl}malonic acid]	0.4	100	0.00	203 (≈ 334 µM)	0.13	88	0.5	improved
C[C@]12C[C@H](c3ccc(/C=C/c4ccccn4)cc3)C3=C4CCC(=O)C=C4CC[C@H]3[C@@H]1CC[C@@]2(O)C(F)(F)C(F)(F)F [Example 6, (8S,11R,13S,14S,17S)-17-hydroxy-13-methyl-17-pentafluoroethyl-11-[4-((E)-2-pyridin-2-ylvinyl)phenyl]-1,2,6,7,8,11,12,13,14,15,16,17-dodecahydrocyclopenta[a]phenanthren-3-one]	0.16	84	0.21	9 (≈ 15.8 µM)	0.12	83	0.7	–
C[C@]12C[C@H](c3ccc(/C=C/c4ccncc4)cc3)C3=C4CCC(=O)C=C4CC[C@H]3[C@@H]1CC[C@@]2(O)C(F)(F)C(F)(F)F [Example 8, (8S,11R,13S,14S,17S)-17-hydroxy-13-methyl-17-pentafluoroethyl-11-[4-((E)-2-pyridin-4-ylvinyl)phenyl]-1,2,6,7,8,11,12,13,14,15,16,17-dodecahydrocyclopenta[a]phenanthren-3-one]	0.012	87	0.18	7 (≈ 12.3 µM)	0.077	92	0.3	–
Cc1nc(/C=C/c2ccc([C@H]3C[C@@]4(C)[C@@H](CC[C@@]4(O)C(F)(F)C(F)(F)F)[C@@H]4CCC5=CC(=O)CCC5=C43)cc2)cs1 [Example 9, (8S,11R,13S,14S,17S)-17-hydroxy-13-methyl-11-{4-[(E)-2-(2-methylthiazol-4-yl)vinyl]phenyl}-17-pentafluoroethyl-1,2,6,7,8,11,12,13,14,15,16,17-dodecahydrocyclopenta[a]phenanthren-3-one]	0.055	68	0.43	8 (≈ 13.6 µM)	0.09	76	1.0	–
Cc1nc2cc(/C=C/c3ccc([C@H]4C[C@@]5(C)[C@@H](CC[C@@]5(O)C(F)(F)C(F)(F)F)[C@@H]5CCC6=CC(=O)CCC6=C54)cc3)ccc2s1 [Example 10, (8S,11R,13S,14S,17S)-17-hydroxy-13-methyl-11-{4-[(E)-2-(2-methylbenzothiazol-5-yl)vinyl]phenyl}-17-pentafluoroethyl-1,2,6,7,8,11,12,13,14,15,16,17-dodecahydrocyclopenta[a]phenanthren-3-one]	0.2	73	0.36	8 (≈ 12.5 µM)	0.86	76	1.0	–
C[C@]12C[C@H](c3ccc(/C=C/C(=O)O)cc3)C3=C4CCC(=O)C=C4CC[C@H]3[C@@H]1CC[C@@]2(O)C(F)(F)C(F)(F)F [Example 13, (E)-3-[4-((8S,11R,13S,14S,17S)-17-hydroxy-13-methyl-3-oxo-17-pentafluoroethyl-2,3,6,7,8,11,12,13,14,15,16,17-dodecahydro-1H-cyclopenta[a]phenanthren-11-yl)phenyl]acrylic acid]	0.1	52	0.63	> 179	0.3	97	0.1	improved
